Experiments:
[1] = Peroral toxicity to mammals (rat); conditions: in vivo, po, mortality rate of 50 percent, read-out: A.O. Rat LD50
Experimental: Certain of these compositions were also evaluated to determine their peroral toxicity to mammals. The animal selected for this experiment was the rat. The test results obtained are expressed in terms of the number of milligrams of compositions per kilogram of weight of the animal required to achieve a mortality rate of 50 percent (LD50).

[2] = system: house flies (Musca domestica, L.); assay: Fly Bait Test; format: in vivo; design: key: A: excellent control; B: partial control; C: no control; conditions: 500 parts per million bait in sugar solution; twenty four hours
Experimental: (§1) Suspensions of the test compounds were prepared by dissolving one gram of compound in 50 milliliters of acetone in which had been dissolved 0.1 gram (10 percent of the weight of compound) of an alkylphenoxy polyethoxyethanol surfactant, as an emulsifying or dispersing agent. The resulting solution was mixed into 150 milliliters of water to give roughly 200 milliliters of a suspension containing the compound in finely divided form. The thus-prepared stock suspension contained 0.5 percent by weight of compound. The test concentrations in parts per million by weight employed in the tests described hereinbelow were obtained by appropriate dilutions of the stock suspension with water. The test procedures were as follows:
Four to six day old adult house flies (Musca domestica, L.) reared according to the specifications of the Chemical Specialties Manufacturing Association (Blue Book, McNair-Dorland Co., N.Y. 1954; pages 243-244, 261) under controlled conditions of 80°±5° F. and 50±5 percent relative humidity, were the test insects. The flies were immobilized by anesthetizing with carbon dioxide and twenty five immobilized individuals, males and females, were transferred to a cage consisting of a standard food strainer about five inches in diameter which was inverted over a wrapping-paper-covered surface. The test compounds were formulated by diluting the stock suspension with a 10 percent (by weight) sugar solution to give a suspension containing 500 parts of test compound per million parts of final formulation, by weight. Ten milliliters of the test formulation were added to a souffle cup containing a one-inch square of an absorbent cotton pad. This bait cup was introduced and centered on the blotting paper under the food strainer prior to admitting the anesthetized flies. The caged flies were allowed to feed on the bait for twenty four hours, at a temperature of 80°±5° F. and the relative humidity of 50±5 percent.

[3] = system: bean aphid (Aphis fabae Scop.); assay: Bean Aphid Foliage Spray Test; format: in vivo; design: key: A: excellent control; B: partial control; C: no control; conditions: 500 parts per million foliage spray; 24 hour holding period
Experimental: as §1
Adults and nymphal stages of the bean aphid (Aphis fabae Scop.) reared on potted dwarf nasturtium plants at 65°-70° F. and 50-70 percent relative humidity, constituted the test insects. For testing purposes, the number of aphids per pot was standardized to 100-150 by trimming plants containing excess aphids.
The test compounds were formulated by diluting the stock suspension with water to give a suspension containing 500 parts of test compound per million parts of final formulation.
The potted plants (one pot per compound tested) infested with 100-150 aphids, were placed on a revolving turntable and sprayed with 100-110 milliliters of test compound formulation by use of a DeVilbiss spray gun set at 40 psig. air pressure. This application, which lasted 25 seconds, was sufficient to wet the plants to run-off. As a control, 100-110 milliliters of a water-acetone-emulsifier solution containing no test compound were also sprayed on infested plants. After spraying, the pots were placed on their sides on a sheet of white standard mimeograph paper which had been previously ruled to facilitate counting. Temperature and humidity in the test room during the 24 hour holding period were 65°-70° F. and 50-70 percent, respectively. Aphids which fell onto the paper and were unable to remain standing after being uprighted were considered dead. Aphids remaining on the plants were observed closely for movement and those which were unable to move the length of the body upon stimulation by prodding were considered dead. Percent mortality was recorded for various concentration levels.

[4] = system: southern armyworm (Prodenia eridania, (Cram.)); assay: Southern Armyworm Leaf Spray Test; format: in vivo; design: key: A: excellent control; B: partial control; C: no control; conditions: 500 parts per million leaf spray; three days
Experimental: as §1
Larvae of the southern armyworm (Prodenia eridania, (Cram.)), reared on Tendergreen bean plants at a temperature of 80°±5° F. and a relative humidity of 50±5 percent, constituted the test insects.
The test compounds were formulated by diluting the stock suspension with water to give a suspension containing 500 parts of test compound per million parts of final formulation. Potted Tendergreen bean plants of standard height and age were placed on a revolving turntable and sprayed with 100-110 milliliters of test compound formulation by use of a DeVilbiss spray gun set at 10 psig air pressure. This application, which lasted 25 seconds, was sufficient to wet plants to run-off. As a control, 100-110 milliliters of a water-acetone-emulsifier solution containing no test compound were also sprayed on infested plants. When dry, the paired leaves were separated and each one was placed in a 9 centimeter Petri dish lined with moistened filter paper. Five randomly selected larvae were introduced into each dish and the dishes were closed. The closed dishes were labeled and held at 80°-85° F. for three days. Although the larvae could easily consume the whole leaf within twenty-four hours, no more food was added. Larvae which were unable to move the length of the body, even upon stimulation by prodding, were considered dead. Percent mortality was recorded for various concentration levels.

[5] = system: two-spotted mite (Tetranychus urticae Koch); assay: Mite Foliage Spray Test; format: in vivo; design: key: A: excellent control; B: partial control; C: no control; conditions: 500 parts per million foliage spray; six days
Experimental: as §1
Adults and nymphal stages of the two-spotted mite (Tetranychus urticae Koch), reared on Tendergreen bean plants at 80±5 percent relative humidity, were the test organisms. Infested leaves from a stock culture were placed on the primary leaves of two bean plants six to eight inches in height, growing in a two-and-a-half inch clay pot. 150-200 Mites, a sufficient number for testing, transferred from the excised leaves to the fresh plants in a period of twenty four hours. Following the twenty four hour transfer period, the excised leaves were removed from the infested plants. The test compounds were formulated by diluting the stock suspension with water to give a suspension containing 500 parts of test compound per million parts of final formulation. The potted plants (one pot per compound) were placed on a revolving turntable and sprayed with 100-110 milliliters of test compound formulation by use of a DeVilbiss spray gun set at 40 psig. air pressure. This application, which lasted 25 seconds, was sufficient to wet the plants to run-off. As a control, 100-110 milliliters of a water solution containing acetone and emulsifier in the same concentrations as the test compound formulation, but containing no test compound, were also sprayed on infested plants. The sprayed plants were held at 80±5 percent relative humidity for six days, after which a mortality count of motile forms was made. Microscopic examination for motile forms was made on the leaves of the test plants. Any individual which was capable of locomotion upon prodding was considered living.

| SMILES | LD50 [1] [mg/kg] | H. Fly, pesticidal activity rating [2] | Aphid, pesticidal activity rating [3] | S. Armyworm, pesticidal activity rating [4] | Mite, pesticidal activity rating [5] |
| --- | --- | --- | --- | --- | --- |
| CN(SSC(C)(C)C)C(=O)ON=C1SC(C)(C)C(=O)N1C | 299 | A | A | A | C |
| CN(SSC(C)(C)C)C(=O)ON=C1SCCS1 | 5.6 | A | A | A | C |

Reference: US4232035A, “Carbamate pesticidal compounds compositions and methods of use” (priority 1975, dated 1980)
